According to patent publication US10358435B2, “Triazolyl pyrimidinone compounds as PDE2 inhibitors” (Merck Sharp & Dohme Corp., priority 2015, dated 2019):

Target: human PDE2A1 (Homo sapiens (Human), UniProt O00408)
Experiment: IMAP fluorescence polarization assay, human PDE2A1 (PDE selectivity panel)
Format: biochemical
Details: for Ki: FAM cAMP 50 nM with 1000 nM cGMP
Description: The activity of the compounds in accordance with the present invention as PDE2 inhibitors may be readily determined using a fluorescence polarization (FP) methodology (Huang, W., et al., J. Biomol Screen, 2002, 7: 215).
Dose-inhibition profiles for each compound were characterized by fitting the mP data to a four-parameter equation given below.
Selectivity for PDE2, as compared to other PDE families, was assessed using the IMAP® technology. Human PDE10A2 enzyme was prepared from cytosolic fractions of transiently transfected HEK cells. All other PDE's were GST Tag human enzyme expressed in insect cells and were obtained from BPS Bioscience (San Diego, Calif.): PDE1A (Cat#60010), human PDE2A1 (Cat#60020), PDE3A (Cat#60030), PDE4A1A (Cat#60040), PDE5A1 (Cat#60050), PDE6C (Cat#60060), PDE7A (Cat#60070), PDE8A1 (Cat#60080), PDE9A2 (Cat#60090), PDE11A4 (Cat#60110).
Assays for PDE 1 through 11 were performed in parallel at room temperature in 384-well microtiter plates with an incubation volume of 20.2 μL. Solutions of test compounds were prepared in DMSO and serially diluted with DMSO to yield 30 μL of each of ten solutions differing by 3-fold in concentration, at 32 serial dilutions per plate. […] A Labcyte POD 810 (Labcyte, Sunnyvale, Calif.) was used to dispense 200 nL from each well of the titration plate to make eleven copies of the assay plate for each titration, one copy for each PDE enzyme. A solution of each enzyme (dilution from aliquots, sufficient to produce 20% substrate conversion) and a separate solution of FAM-labeled cAMP or FAM-labeled cGMP from Molecular Devices (Sunnyvale, Calif., product # R7506 or cGMP#R7508), at a final concentration of 50 nM were made in the assay buffer (10 mM Tris HCl, pH 7.2, 10 mM MgCl2, 0.05% NaN3 0.01% Tween-20, and 1 mM DTT). Note that the substrate for PDE2 is 50 nM FAM cAMP containing 1000 nM of cGMP. The enzyme and the substrate were then added to the assay plates in two consecutive additions of 10 μL and then shaken to mix. The reaction was allowed to proceed at room temperature for 60 minutes. A binding solution was then made from the kit components, comprised of 80% Solution A, 20% Solution B and binding reagent at a volume of 1/600 the total binding solution. The enzymatic reaction was stopped by addition of 60 μL of the binding solution to each well of the assay plate. The plates were sealed and shaken for 10 seconds. The plates were incubated at room temperature for one hour, then the parallel and perpendicular fluorescence was measured using a Tecan Genios Pro plate reader (Tecan, Switzerland). The apparent inhibition constants for the compounds against all 11 PDE's was determined from the parallel and perpendicular fluorescent readings as described for PDE10 FP assay using the following apparent KM values for each enzyme and substrate combination: PDE1A (FAM cGMP) 70 nM, human PDE2A1 (FAM cAMP) 10,000 nM, PDE3A (FAM cAMP) 50 nM, PDE4A1A (FAM cAMP) 1500 nM, PDE5A1 (FAM cGMP) 400 nM, PDE6C (FAM cGMP) 700 nM, PDE7A (FAM cAMP) 150 nM, PDE8A1 (FAM cAMP) 50 nM, PDE9A2 (FAM cGMP) 60 nM, PDE10A2 (FAM cAMP) 150 nM, PDE11A4 (FAM cAMP) 1000 nM. The intrinsic PDE2 inhibitory activity of a compound which may be used in accordance with the present invention may be determined by these assays.

Sequence of human PDE2A1 (O00408 other isoform, or with tags, fused parts or gaps): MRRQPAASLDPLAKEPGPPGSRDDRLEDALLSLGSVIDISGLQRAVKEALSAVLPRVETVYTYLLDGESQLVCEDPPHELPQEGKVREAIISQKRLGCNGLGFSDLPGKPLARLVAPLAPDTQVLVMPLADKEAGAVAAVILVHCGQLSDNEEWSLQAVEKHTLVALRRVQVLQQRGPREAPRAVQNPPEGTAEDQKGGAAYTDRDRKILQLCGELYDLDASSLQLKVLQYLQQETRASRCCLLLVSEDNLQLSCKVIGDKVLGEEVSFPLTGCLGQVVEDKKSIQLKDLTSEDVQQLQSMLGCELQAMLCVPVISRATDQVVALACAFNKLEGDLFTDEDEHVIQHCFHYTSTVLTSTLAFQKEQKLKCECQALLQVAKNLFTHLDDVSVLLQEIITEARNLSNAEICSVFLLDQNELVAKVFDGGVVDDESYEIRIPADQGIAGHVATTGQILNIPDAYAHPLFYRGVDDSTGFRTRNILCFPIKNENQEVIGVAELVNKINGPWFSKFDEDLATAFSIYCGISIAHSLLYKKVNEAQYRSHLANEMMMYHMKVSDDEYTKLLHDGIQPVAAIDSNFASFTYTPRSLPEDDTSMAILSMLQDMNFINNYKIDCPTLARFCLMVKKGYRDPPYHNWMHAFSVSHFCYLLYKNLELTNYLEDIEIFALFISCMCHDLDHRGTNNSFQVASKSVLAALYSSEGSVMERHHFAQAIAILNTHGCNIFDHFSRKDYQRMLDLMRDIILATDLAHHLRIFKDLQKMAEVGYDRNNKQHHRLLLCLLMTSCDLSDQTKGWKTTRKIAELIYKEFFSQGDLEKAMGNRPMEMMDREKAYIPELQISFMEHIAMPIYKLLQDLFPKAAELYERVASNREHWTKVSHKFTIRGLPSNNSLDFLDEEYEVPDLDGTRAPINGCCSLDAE

Ki [nM] | inhibition at 3 µM [%] | SMILES
1130 | – | Cc1nc(-c2nnc(C(C)(C)c3ccc(C(F)(F)F)cc3F)n2C)cc(=O)[nH]1 [Example 69, 6-(5-(2-(2-Fluoro-4-(trifluoromethyl)phenyl)propan-2-yl)-4-methyl-4H-1,2,4-triazol-3-yl)-2-methylpyrimidin-4(3H)-one]
– | 17 | Cc1nc(-c2nnc(C(C)c3ccc(C(F)(F)F)cc3Cl)n2C)cc(=O)[nH]1 (single isomer, unassigned) [Example 67, (R)- or (S)-6-(5-(1-(2-chloro-4-(trifluoromethyl)-phenyl)ethyl)-4-methyl-4H-1,2,4-triazol-3-yl)-2-methylpyrimidin-4(3H)-one]
26.9 | – | Cc1nc(-c2nnc3n2CCCC3(C)c2ccc(C(F)(F)F)cc2)cc(=O)[nH]1 (single isomer, unassigned) [Example 73, (S)- or (R)-2-methyl-6-(8-methyl-8-(4-(trifluoromethyl)phenyl)-5,6,7,8-tetrahydro-[1,2,4]triazolo[4,3-a]pyridin-3-yl)pyrimidin-4(3H)-one]
5.4 | – | Cc1nc(-c2cn(C(C)(C)c3ccc(C(F)(F)F)cc3C)nn2)cc(=O)[nH]1 [Example 31, 2-methyl-6-(1-(2-(2-methyl-4-(trifluoromethyl)phenyl)propan-2-yl)-1H-1,2,3-triazol-4-yl) pyrimidin-4(3H)-one]
36.3 | – | Cc1nc(-c2cnn([C@H](C)c3ccc(C(F)(F)F)cc3Cl)n2)cc(=O)[nH]1 (single isomer, unassigned) [Example 1]
132 | – | Cc1nc(-c2cn([C@H](C)c3ccc(C(F)(F)F)cc3C)nn2)cc(=O)[nH]1 (single isomer, unassigned) [Example 10]
42.4 | – | Cc1nc(-c2nnn3c2CCC[C@H]3c2ccc(C(F)(F)F)cc2)cc(=O)[nH]1 (single isomer, unassigned) [Example 48]
20.7 | – | Cc1nc(-c2nnn3c2CCCC3c2ccc(C(F)(F)F)cc2F)cc(=O)[nH]1 (single isomer, unassigned) [Example 50, (S)- or (R)-6-(7-(2-fluoro-4-(trifluoromethyl)phenyl)-4,5,6,7-tetrahydro-[1,2,3]triazolo[1,5-a]pyridin-3-yl)-2-methylpyrimidin-4(3H)-one]
4.2 | – | Cc1nc(-n2ncc([C@H](C)c3ccc(C(F)(F)F)cc3Cl)n2)cc(=O)[nH]1 (single isomer, unassigned) [Example 83]
10.5 | – | CCC(c1ccc(C(F)(F)F)cc1F)n1cc(-c2cc(=O)[nH]c(C)n2)nn1 (single isomer, unassigned) [Example 38, (S)- or (R)-6-(1-(1-(2-fluoro-4-(trifluoromethyl)phenyl)propyl)-1H-1,2,3-triazol-4-yl)-2-methylpyrimidin-4(3H)-one]
16.2 | – | Cc1nc(-c2nnn3c2CCC[C@@]3(C)c2ccc(C(F)(F)F)cc2)cc(=O)[nH]1 (single isomer, unassigned) [Example 54]
8.9 | – | Cc1nc(-n2cc([C@H](C)c3ccc(C(F)(F)F)cc3Cl)nn2)cc(=O)[nH]1 (single isomer, unassigned) [Example 75]
1.8 | – | CCc1ccc([C@]2(C)CCCc3c(-c4cc(=O)[nH]c(C)n4)nnn32)c(F)c1 (single isomer, unassigned) [Example 95]
387 | – | Cc1nc(-c2nnc(C(C)c3ccc(C(F)(F)F)cc3F)[nH]2)cc(=O)[nH]1 (single isomer, unassigned) [Example 62, (S)- or (R)-6-(5-(1-(2-fluoro-4-(trifluoromethyl)-phenyl)ethyl)-4H-1,2,4-triazol-3-yl)-2-methylpyrimidin-4(3H)-one]
1030 | – | Cc1nc(-c2cnn(C(C)c3ccc(C(F)(F)F)cc3F)n2)cc(=O)[nH]1 (single isomer, unassigned) [Example 4, (S)- or (R)-6-(2-(1-(2-fluoro-4-(trifluoromethyl)phenyl)ethyl)-2H-1,2,3-triazol-4-yl)-2-metylpyrimidin-4(3H)-one]
~1550 | – | CCc1ccc(C(C)n2ncc(-c3cc(=O)[nH]c(C)n3)n2)c(Cl)c1 (single isomer, unassigned) [Example 8, (S)- or (R)-6-(2-(1-(2-chloro-4-ethylphenyl)ethyl)-2H-1,2,3-triazol-4-yl)-2-methylpyrimidin-4(3H)-one]
23.3 | – | Cc1nc(-c2nnc(C(C)c3ccc(C(F)(F)F)cc3F)n2C)cc(=O)[nH]1 (single isomer, unassigned) [Example 64, (S)- or (R)-6-(5-(1-(2-fluoro-4-(trifluoromethyl)-phenyl)ethyl)-4-methyl-4H-1,2,4-triazol-3-yl)-2-methylpyrimidin-4(3H)-one]
17.7 | – | Cc1nc(-c2cn(C(C)c3ccc(C(F)(F)F)c(F)c3F)nn2)cc(=O)[nH]1 (single isomer, unassigned) [Example 22, (S)- or (R)-6-(1-(1-(2,3-difluoro-4-(trifluoromethyl)phenyl)ethyl)-1H-1,2,3-triazol-4-yl)-2-methylpyrimidin-4(3H)-one]
15.9 | – | Cc1nc(-c2nnc(C(C)c3ccc(C(F)(F)F)cc3Cl)[nH]2)cc(=O)[nH]1 (single isomer, unassigned) [Example 65, (R)- or (S)-6-(5-(1-(2-chloro-4-(trifluoromethyl)-phenyl)ethyl)-4H-1,2,4-triazol-3-yl)-2-methylpyrimidin-4(3H)-one]
4.6 | – | Cc1nc(-c2nnn([C@H](C)c3ccc(C(F)(F)F)cc3Cl)c2C)cc(=O)[nH]1 (single isomer, unassigned) [Example 43]
804 | – | Cc1nc(-c2nnn3c2CCC[C@]3(C)c2ccc(C(F)(F)F)cc2C)cc(=O)[nH]1 (single isomer, unassigned) [Example 78]
– | 44 | Cc1nc(-c2nnn([C@H](C)c3ccc(C(F)(F)F)cc3Cl)c2C)cc(=O)[nH]1 (mixture of isomers) [Example 44, (R)- and (S)-6-(1-(1-(2-Chloro-4-(trifluoromethyl)phenyl)-ethyl)-5-methyl-1H-1,2,3-triazol-4-yl)-2-methylpyrimidin-4(3H)-one]
67 | – | Cc1nc(-c2nnn3c2CCCCC3(C)c2ccc(C(F)(F)F)cc2F)cc(=O)[nH]1 (single isomer, unassigned) [Example 93, (S)- or (R)-6-(8-(2-Fluoro-4-(triflouromethyl)phenyl)-8-methyl-5,6,7,8-tetrahydro-4H-[1,2,3]triazolo[1,5-a]azepin-3-yl)-2-methylpyrimidin-4(3H)-one]
~1900 | – | Cc1nc(-c2cnn(C(C)c3ccc(C(F)(F)F)cc3C)n2)cc(=O)[nH]1 (single isomer, unassigned) [Example 6, (S)- or (R)-2-methyl-6-(2-(1-(2-methyl-4-(trifluoromethyl)phenyl)ethyl)-2H-1,2,3-triazol-4-yl)pyrimidin-4(3H)-one]
56.3 | – | Cc1nc(-c2nnn3c2CCCCC3(C)c2ccc(C(F)(F)F)cc2F)cc(=O)[nH]1 (single isomer, unassigned) [Example 94, (S)- or (R)-6-(8-(2-Fluoro-4-(triflouromethyl)phenyl)-8-methyl-5,6,7,8-tetrahydro-4H-[1,2,3]triazolo[1,5-a]azepin-3-yl)-2-methylpyrimidin-4(3H)-one]
79.9 | – | Cc1nc(-c2nnn3c2CCCCC3c2ccc(C(F)(F)F)cc2)cc(=O)[nH]1 (single isomer, unassigned) [Example 51, (R)- or (S)-2-methyl-6-(8-(4-(trifluoromethyl)phenyl)-5,6,7,8-tetrahydro-4H-[1,2,3]triazolo[1,5-a]azepin-3-yl)pyrimidin-4(3H)-one]

SMILES | Ki [nM] | inhibition at 3 µM [%]
COc1cccc(Cc2nc(-c3nnn4c3CCCC4(C)c3ccc(C(F)(F)F)cc3F)cc(=O)[nH]2)c1 (single isomer, unassigned) [Example 92] | 728 | –
